From patent US20050260253A1, “Transmucosal gel formulations” (Recordati Ireland Limited, priority 2004, published 2005)
Like-named read-outs stand apart in the source and are kept apart here.

Columns and labels:
[1] = test system: genital blood flow in female anesthetized rabbits; experiment: Genital tissue oxyhemoglobin (genital engorgement) by laser oximetry, basal and after pelvic nerve stimulation, in vivo model of female sexual arousal; design: species or system rabbit (New Zealand White); conditions: for nerve-induced increase in genital tissue OxyHb: topical vaginal formulation; for mean AUC of genital tissue OxyHb compared to vehicle-treated control group: 15-35 min; for response to pelvic nerve stimulation (genital tissue oxyhemoglobin) vs control stimulations: vaginal submucosal injection 100 μg
Description: The effect of Rec 15/2615 formulation on genital blood flow, a physiologic parameters of female sexual arousal, was measured in both the basal, non-aroused state and following stimulation of the pelvic nerve, which mimics the sexually aroused state, in an established in vivo animal model of female sexual arousal (see, e.g., Munarriz, R., et al., 2003, A review of the physiology and pharmacology of peripheral (vaginal and clitoral) female genital arousal in the animal model, J. Urol. 170(2 Pt 2):S40-44; Min, K., et al., 2000, Sildenafil augments pelvic nerve-mediated female genital sexual arousal in the anesthetized rabbit. Intl. J. Impot. Res. 12(Suppl)3:S32-39; Tarcan, T., et al., 2000, Systemic administration of apomorphine improves the hemodynamic mechanism of clitoral and vaginal engorgement in the rabbit. Int J Impot Res. 12:235-240; Park, K., et al., 1997, Vasculogenic female sexual dysfunction: the hemodynamic basis for vaginal engorgement insufficiency and clitoral erectile insufficiency. Intl. J. Impot. Res. 9:27-37). Each of the foregoing references is incorporated herein by reference in its entirety.
(§1) Female New Zealand White rabbits (4.5 to 5 kg) were anesthetized by intramuscular injection of ketamine (35 mg/kg) and xylazine (5 mg/kg) and secured in the supine position. Anesthesia was maintained as needed with additional intramuscular xylazine (5 mg/ml). A midline neck incision (3 cm) was fashioned to access the carotid artery. A 20-gauge angiocatheter was inserted into the carotid artery for systemic blood pressure measurements. […] Body temperature was maintained with an electric heat pad. Following subcutaneous lidocaine injection, the perivesical space was exposed through a mid-line abdominal incision. The pelvic nerve was identified and carefully dissected under the perivesical fat on the postero-lateral aspect of the upper vagina. Bladder contents were aspirated through the bladder wall with an 18 gauge needle and 50 ml syringe. Under direct vision, a bipolar platinum wire electrode was hooked onto the pelvic nerve without cutting the nerve. Unilateral pelvic nerve stimulation was accomplished with a Grass SD9 stimulator set at normal polarity and repeat mode to generate a 30 second train of square waves with 10 V pulse amplitude, 0.8 msec pulse duration and 2-6 Hz frequency. A laser Doppler flowmetry surface probe (model BLF21D, Transonic System Inc, Ithaca, N.Y., USA) was placed into the rabbit vagina and used to confirm unilateral pelvic nerve stimulation. The interval between stimulations was 10-15 min to prevent nerve exhaustion.
Tissue hemoglobin concentration was determined by a near infrared optical spectroscopy technique using a dual channel laser oximeter (model 96208; ISS, Inc., Champaign, Ill.). This technique utilizes a continuous wave optical spectrometer with a fiber optic array probe consisting of one detector and 8 light sources. The sources emit light in the near infrared spectrum (700-900 nm) which can penetrate a targeted volume of tissue (˜530 mm^3) to an average depth of 7.2 mm beneath the optical fibers. By detecting scattered light, absorption by oxyhemoglobin (OHb) and deoxyhemoglobin can be quantified and total hemoglobin can be calculated. Laser oximetry can thus be utilized to assess local tissue hemodynamics in a non-invasive and continuous fashion. The skin around the labia was carefully shaved to ensure good contact with the optical fibers. The probe (2 cm in length) was positioned longitudinally on the skin overlying the clitoris, labia and vagina, such that the detector fiber was positioned just below the pubic arch. The probe assembly was secured in place by a metal stand. The area over the probe was covered with a black cloth to prevent any interference from natural or artificial ambient light sources.
A flexible 18 gauge catheter was attached to a syringe loaded with hydrogel formulation. The catheter was filled until the formulation reached 3-5 mm from the open end. […]

[2] = test system: systemic blood pressure; experiment: Systemic blood pressure via carotid artery catheter in anesthetized rabbits; format: in vivo, rabbit (New Zealand White)
Description: as §1, with “The interval between stimulations was 10-15 min to prevent nerve exhaustion.” left out

[3] = Plasma concentration of Rec 15/2615 by LC/MS-MS after vaginal application or submucosal injection; format: in vivo, rabbit; conditions: for concentration at 15 min: female, rabbit, plasma, read-out: Mean plasma levels of Rec 15/2615
Description: A flexible 18 gauge catheter was attached to a syringe loaded with hydrogel formulation. The catheter was filled until the formulation reached 3-5 mm from the open end. The catheter was placed 2.5 cm into the vagina and secured to the labia with suture to prevent migration. The syringe was placed on the heating pad to keep the formulation warm. Following control nerve stimulations, 1 ml of formulation was infused into the vagina. Pelvic nerve stimulation was repeated 15 min and 30 min afterwards. Nerve stimulation at the 15 min time point coincided with the time of maximal serum concentration.
Rec 15/2615 hydrochloride (1 mg/ml) was dissolved in 10% (v/v) N,N-dimethylformamide. Prior to the application of the laser oximeter probe, Rec 15/2615 hydrochloride solution was loaded into two 23 gauge infusion sets connected to 1 ml syringes (50 μl per infusion set). Needles were inserted into the distal vaginal wall, just below the mucosal surface, at the 3 and 9 o'clock positions. Following control nerve stimulations, drug was infused into the vagina. Pelvic nerve stimulation was repeated 15 min and 30 min after drug administration.
Blood samples (˜2 ml) were obtained from the carotid artery prior to formulation administration and then […] after formulation administration. Samples were collected in heparinized syringes and transferred into pre-cooled polypropylene tubes on ice. Plasma was obtained by centrifugation at 1200×g for 2 min at 4° C. and stored at −20° C.
0.1 mL of rabbit plasma was transferred to an Eppendorf tube and 10 μL of internal standard methanolic solution (0.2 μg/mL of 4-amino-6,7-dimethoxy-2-[4-(2-isopropyl-5-methylphenoxy acetyl)-1-piperazinyl]quinazoline (Rec 15/2693) in methanol) were added. 1 mL of acetonitrile was added to each sample and samples were shaken on a multimixer shaker for 1 min. Protein was allowed to precipitate and samples were then centrifuged at 4° C. for 10 min at 2700 g. The organic layer was transferred to a new glass tube and evaporated at 45° C. under a stream of nitrogen. The residue was dissolved in 250 μL of buffer solution containing methanol/10 mM ammonium formate, pH 3.5 (40:60; v/v). Samples were mixed 1 min using a vortex mixer and clarified by centrifugation (5 min×2700 g). The clarified solution was transferred into an autosampler vial. Aliquots of 20 μL were analyzed by LC/MS-MS.

Row | concentration at 15 min ([3]; other: submucosal injection into the distal vaginal wall, 15 min after direct submucosal injection of 0.1 mg) [ng/mL] | concentration at 15 min ([3]; other: vaginal application, 15 min after vaginal application of 1 ml of formulation 0.075%) [ng/mL] | concentration at 15 min ([3]; other: vaginal application, 15 min after vaginal application of 1 ml of formulation 0.15%) [ng/mL] | concentration at 15 min ([3]; other: vaginal application, 15 min after vaginal application of 1 ml of formulation 0.3%) [ng/mL] | plasma levels with increasing concentration of active compound in the formulation ([3]; vaginal application, 0.075-0.3%) | Structure (SMILES) | effect on genital tissue oxyhemoglobin administered as a gel compared with direct submucosal injection ([1]; formulations 0.075% and 0.15% vs submucosal injection, considering plasma levels at 15 min) | nerve-induced increase in genital tissue OxyHb ([1]; pelvic nerve stimulation at 15 min) | nerve-induced increase in genital tissue OxyHb ([1]; pelvic nerve stimulation at 30 min) | AUC of genital tissue OxyHb relative to vehicle ([1]; topical vaginal, 0-35 min, dose-dependent trend) | mean AUC of genital tissue OxyHb compared to vehicle-treated control group ([1]; topical vaginal, 1 ml formulation 0.15%) | mean AUC of genital tissue OxyHb compared to vehicle-treated control group ([1]; topical vaginal, 1 ml formulation 0.3%) | mean area-under-the-curve (AUC) of genital tissue OxyHb compared to vehicle ([1]; topical vaginal, 1 ml formulation, 0-15 min, all concentrations except 0.15%) | duration of sustained genital engorgement following formulation administration ([1]; topical vaginal, duration of the experimental protocol) | response to pelvic nerve stimulation (genital tissue oxyhemoglobin) vs control stimulations ([1]; 15 min after injection) | response to pelvic nerve stimulation (genital tissue oxyhemoglobin) vs control stimulations ([1]; 30 min after injection) | effect on blood pressure ([2]; topical vaginal administration, 0.075-0.3% formulations) | effect on systemic blood pressure ([2]; vaginal submucosal injection (data not shown))
1 |  |  |  |  |  | COc1cc2nc(N3CCN(C(=O)COc4c(OC)cccc4C(C)C)CC3)nc(N)c2cc1OC.Cl.Cl [Rec 15/2615 hydrochloride] | higher than that obtained by direct injection |  |  |  |  |  |  |  |  |  |  | 
2 | 26.3 | 10.6 | 45.2 | 72.5 | dose-dependent increase | COc1cc2nc(N3CCN(C(=O)COc4c(OC)cccc4C(C)C)CC3)nc(N)c2cc1OC [Rec 15/2615, 4-amino-6,7-dimethoxy-2-{4-[(2-isopropyl-6-methoxyphenoxy)acetyl]-1-piperazinyl}quinazoline] |  | significant increase | remained high | higher AUC values relative to vehicle | statistically significant difference | statistically significant difference | similar | up to 45 minutes | significantly enhanced response | did not reach statistical significance | no significant effect | did not affect systemic blood pressure
